{"source": "patent US9969766B2", "about": "“20(R)-ginsenoside Rg3 polyacylated derivatives, preparation and application thereof” (priority 2014, dated 2018)", "key": {"mouse Lewis lung cancer": {"test_system": "mouse Lewis lung cancer", "assay": "Mouse Lewis lung cancer, toe subcutaneous inoculation, anti-tumor test", "conditions": "po × 14bid", "excerpt": "(§1) human breast cancer Bcap-37 model, human lung cancer A549 model, human intestinal cancer LOVO model, human stomach cancer MGC model and human liver cancer QGY model, with tumor cell lines being of the second generation or more, mouse B16 melanoma cell line, mouse Lewis lung cancer model, mouse sarcoma s180 model, all passaged and preserved in Pharmacological Division of Shanghai Institute of Pharmaceutical Industry. 3. Experiment Animals Origins: nude mice, 6-week old, 18-22 g/mouse, provided by Laboratory Animal Center of Chinese Academy of Sciences, Shanghai Branch, with certification No. 2001A032. C57BL/6 mice and Kunming mice, 18-22 g/mouse, provided by Laboratory Animal Center of Chinese Academy of Sciences, Shanghai Branch, with certification SYXK (Shanghai) 2004-0015. Gender: male or female, the same gender for each batch in experiment Animal numbers: 10 mice and 10 nude mice for each of positive control group and test group in experiment, and 20 for negative control group. 4. Experiment Design Dose Settings: doses for 20(R)-ginsenoside Rg3 octo-acetate, 20(R)-ginsenoside Rg3 octo-n-butyrate and 20(R)-ginsenoside Rg3 octo-n-propionate were set as high-dose group (0.3 mg/kg/d), medium-dose group (0.06 mg/kg/d), and low-dose group (0.012 mg/kg/d). Dosage regimen: oral administration, twice daily. human tumor model and cell-inoculated mouse model: po×14 bid; mouse tumor-inoculated model: po×10 bid. Control Trial: negative control group: given with the same volume of 5% CMC-Na as the test group, and the same dosage regimen as the test group. positive control group: Cyclophosphamide CTX 30 mg/kg, […] 5. Experiment Method and Key Steps 5.1 Anti-Tumor Test 5.1.1 Subcutaneous Inoculation Model\nTumor cells of vigorous growth stage were taken under sterile condition and made into cell suspensions of about 1-2×10^7/ml by homogenization, the suspensions were inoculated subcutaneously at 0.2 ml/mouse in host mice and repeated on the next day according to the experiment design, the animals in each group were slaughtered after about three weeks, the tumors were collected and weighed, and the tumor inhibition rates were calculated according to the following equation: tumor inhibition rate %=[(average tumor weight of control group-average tumor weight of treatment group)/average tumor weight of control group]×100%"}, "[1]": {"assay": "Solubility of the isolated products", "type": "physicochemical"}, "[2]": {"test_system": "human intestinal cancer LOVO cells", "conditions": "po × 14bid", "excerpt": "as §1\nLOVO intestinal cancer cells (cultured in vitro) of logarithmic growth stage were taken under sterile condition and prepared into cell suspensions of about 1.8×10^7/ml using RPMI1640 culture medium as diluent. The nude mice were subjected to general anesthesia and cut in belly after routine disinfection to belly skin, the spleens were taken out and inoculated with LOVO intestinal cancer cell suspensions (0.05 ml/mouse) and then restored, the incisions were sutured, and the mice were placed in the cages and then put in the laminar flow rack."}, "[3]": {"test_system": "human liver cancer QGY cells", "assay": "Human liver cancer QGY liver in-situ inoculation, survival", "conditions": "po × 14bid", "excerpt": "human breast cancer Bcap-37 model, human lung cancer A549 model, human intestinal cancer LOVO model, human stomach cancer MGC model and human liver cancer QGY model, with tumor cell lines being of the second generation or more, mouse B16 melanoma cell line, mouse Lewis lung cancer model, mouse sarcoma s180 model, all passaged and preserved in Pharmacological Division of Shanghai Institute of Pharmaceutical Industry. 3. Experiment Animals Origins: nude mice, 6-week old, 18-22 g/mouse, provided by Laboratory Animal Center of Chinese Academy of Sciences, Shanghai Branch, with certification No. 2001A032. C57BL/6 mice and Kunming mice, 18-22 g/mouse, provided by Laboratory Animal Center of Chinese Academy of Sciences, Shanghai Branch, with certification SYXK (Shanghai) 2004-0015. Gender: male or female, the same gender for each batch in experiment Animal numbers: 10 mice and 10 nude mice for each of positive control group and test group in experiment, and 20 for negative control group. 4. Experiment Design Dose Settings: doses for 20(R)-ginsenoside Rg3 octo-acetate, 20(R)-ginsenoside Rg3 octo-n-butyrate and 20(R)-ginsenoside Rg3 octo-n-propionate were set as high-dose group (0.3 mg/kg/d), medium-dose group (0.06 mg/kg/d), and low-dose group (0.012 mg/kg/d). Dosage regimen: oral administration, twice daily. human tumor model and cell-inoculated mouse model: po×14 bid; mouse tumor-inoculated model: po×10 bid. Control Trial: negative control group: given with the same volume of 5% CMC-Na as the test group, and the same dosage regimen as the test group. positive control group: Cyclophosphamide CTX 30 mg/kg, MMC 2 mg/kg and 5Fu 30 mg/kg by intraperitoneal or intravenous administration, once daily, for seven consecutive days. 5. Experiment Method and Key Steps 5.1 Anti-Tumor Test 5.1.1 Subcutaneous Inoculation Model\nUnder sterile condition, the in vivo passage of the second generation of QGY tumor source of vigorous growth stage was prepared into cell suspensions of about 1-2×10^7/ml by homogenization (1:6), and the homogenates were filtered using 100-mesh stainless steel screen, getting ready for use. The nude mice were disinfected routinely and anaesthetized and cut at the xiphoid in the middle of the abdominal cavity to expose the liver, the cell suspensions (0.05 ml) were injected into liver parenchyma using imported 28 ga ½ ml syringes, the abdominal cavity was closed and then sutured layer by layer. The nude mice were fed in the laminar flow rack, with all the feed, packing, cage and contact instruments being sterilized under high pressure before use."}}, "note": "Where two headings read alike, the source gives them in different places.", "data": [{"smiles": "CC(=O)OC[C@H]1O[C@@H](OC2CC[C@]3(C)C(CC[C@@]4(C)C3C[C@H](OC(C)=O)C3C([C@@](C)(O)CCC=C(C)C)CC[C@@]34C)C2(C)C)[C@H](OC2O[C@H](COC(C)=O)[C@@H](OC(C)=O)[C@H](OC(C)=O)[C@H]2OC(C)=O)[C@@H](OC(C)=O)[C@@H]1OC(C)=O", "note": "(stereo partly drawn) [Rg3-octo-acetate, 20 (R)-ginsenoside Rg3 octaacetate]", "values": [{"measurement": "Tumor inhibition rate %", "setting": "mouse Lewis lung cancer; 0.012 mg/kg/d", "value": 50.15, "unit": "%"}, {"measurement": "Tumor-bearing toe weight (g) X ± SD", "setting": "mouse Lewis lung cancer; 0.012 mg/kg/d", "value": "0.444 ± 0.09", "unit": "g"}, {"measurement": "Tumor inhibition rate %", "setting": "mouse Lewis lung cancer; 0.06 mg/kg/d", "value": 58.89, "unit": "%"}, {"measurement": "Tumor-bearing toe weight (g) X ± SD", "setting": "mouse Lewis lung cancer; 0.06 mg/kg/d", "value": "0.366 ± 0.09", "unit": "g"}, {"measurement": "Tumor inhibition rate %", "setting": "mouse Lewis lung cancer; 0.3 mg/kg/d", "value": 71.09, "unit": "%"}, {"measurement": "Tumor-bearing toe weight (g) X ± SD", "setting": "mouse Lewis lung cancer; 0.3 mg/kg/d", "value": "0.633 ± 0.08", "unit": "g"}, {"measurement": "Solubility in ethanol", "setting": "[1]; ethanol", "value": "soluble"}, {"measurement": "Solubility in water", "setting": "[1]; water", "value": "soluble"}, {"measurement": "Average survival (d) X ± SD", "setting": "[2]; 0.012 mg/kg/d", "value": "24.59 ± 4.5", "unit": "days"}, {"measurement": "Life extension rate T/C × %", "setting": "[2]; 0.012 mg/kg/d", "value": 179.99, "unit": "%"}, {"measurement": "Average survival (d) X ± SD", "setting": "[2]; 0.06 mg/kg/d", "value": "25.80 ± 4.8", "unit": "days"}, {"measurement": "Life extension rate T/C × %", "setting": "[2]; 0.06 mg/kg/d", "value": 188.90, "unit": "%"}, {"measurement": "Average survival (d) X ± SD", "setting": "[2]; 0.3 mg/kg/d", "value": "31.50 ± 5.1", "unit": "days"}, {"measurement": "Life extension rate T/C × %", "setting": "[2]; 0.3 mg/kg/d", "value": 230.59, "unit": "%"}, {"measurement": "Animal body weight (g) Start", "setting": "[3]; 0.012 mg/kg/d", "value": 19.1, "unit": "g"}, {"measurement": "Animal body weight (g) end", "setting": "[3]; 0.012 mg/kg/d", "value": 25.2, "unit": "g"}, {"measurement": "Average survival (d) X ± SD", "setting": "[3]; 0.012 mg/kg/d", "value": "37.26 ± 4.5", "unit": "days"}, {"measurement": "Life extension rate T/C × %", "setting": "[3]; 0.012 mg/kg/d", "value": 159.58, "unit": "%"}, {"measurement": "Animal body weight (g) Start", "setting": "[3]; 0.06 mg/kg/d", "value": 19.1, "unit": "g"}, {"measurement": "Animal body weight (g) end", "setting": "[3]; 0.06 mg/kg/d", "value": 24.3, "unit": "g"}, {"measurement": "Average survival (d) X ± SD", "setting": "[3]; 0.06 mg/kg/d", "value": "38.90 ± 4.1", "unit": "days"}, {"measurement": "Life extension rate T/C × %", "setting": "[3]; 0.06 mg/kg/d", "value": 166.59, "unit": "%"}, {"measurement": "Animal body weight (g) Start", "setting": "[3]; 0.3 mg/kg/d", "value": 19.3, "unit": "g"}, {"measurement": "Animal body weight (g) end", "setting": "[3]; 0.3 mg/kg/d", "value": 24.8, "unit": "g"}, {"measurement": "Average survival (d) X ± SD", "setting": "[3]; 0.3 mg/kg/d", "value": "42.49 ± 5.0", "unit": "days"}, {"measurement": "Life extension rate T/C × %", "setting": "[3]; 0.3 mg/kg/d", "value": 181.98, "unit": "%"}]}]}
